Key:
[1] = biological target: Cyclin-dependent kinase 1/cyclin B (Homo sapiens) (UniProt P06493+P14635+Q8WWL7+O95067); test: Selectivity interaction (Kinase panel (Z-LYTE Assay)) EUB0001632a CDK1; assay type: protein-complex assay; details: at 10 µM
[2] = biological target: Myosin light chain kinase, smooth muscle (Homo sapiens, UniProt Q15746); test: Selectivity interaction (ProQinase) EUB0000171b MYLK
[3] = biological target: T1, Phosphatidylinositol 4,5-bisphosphate 3-kinase catalytic subunit delta isoform (Homo sapiens) (UniProt O00329); test: Selectivity interaction (KinomeScan (DiscoverX)) EUB0001619a PIK3CD; details: at 1 µM
T1 sequence (whole entry): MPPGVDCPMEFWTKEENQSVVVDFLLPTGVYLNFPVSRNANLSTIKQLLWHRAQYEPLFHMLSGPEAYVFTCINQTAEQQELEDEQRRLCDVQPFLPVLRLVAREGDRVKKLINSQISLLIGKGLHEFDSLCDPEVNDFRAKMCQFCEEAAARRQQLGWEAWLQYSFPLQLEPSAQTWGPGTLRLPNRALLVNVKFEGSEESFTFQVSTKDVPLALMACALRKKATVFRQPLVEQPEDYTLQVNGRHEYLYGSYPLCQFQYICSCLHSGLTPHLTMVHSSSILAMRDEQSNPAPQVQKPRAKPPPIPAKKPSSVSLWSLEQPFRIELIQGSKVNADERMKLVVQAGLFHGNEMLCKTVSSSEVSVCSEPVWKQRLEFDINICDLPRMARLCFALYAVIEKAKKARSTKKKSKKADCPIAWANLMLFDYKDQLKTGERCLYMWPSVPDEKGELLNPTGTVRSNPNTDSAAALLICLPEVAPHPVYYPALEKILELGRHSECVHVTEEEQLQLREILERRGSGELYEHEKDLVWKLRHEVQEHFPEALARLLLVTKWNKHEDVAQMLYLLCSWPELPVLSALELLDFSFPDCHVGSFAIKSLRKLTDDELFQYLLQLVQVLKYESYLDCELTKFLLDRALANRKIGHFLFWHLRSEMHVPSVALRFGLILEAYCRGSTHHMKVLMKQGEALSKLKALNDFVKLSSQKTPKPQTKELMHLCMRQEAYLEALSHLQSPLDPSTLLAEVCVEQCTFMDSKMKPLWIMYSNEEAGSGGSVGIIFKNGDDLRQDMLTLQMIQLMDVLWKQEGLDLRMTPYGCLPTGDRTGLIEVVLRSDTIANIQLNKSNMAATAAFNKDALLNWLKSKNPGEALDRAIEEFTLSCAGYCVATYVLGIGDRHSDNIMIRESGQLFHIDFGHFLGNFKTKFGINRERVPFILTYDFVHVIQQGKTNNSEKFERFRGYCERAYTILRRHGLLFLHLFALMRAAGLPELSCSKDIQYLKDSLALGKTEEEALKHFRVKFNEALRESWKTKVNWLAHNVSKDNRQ

[4] = biological target: T2, Serine/threonine-protein kinase haspin (Homo sapiens) (UniProt Q8TF76); test: Selectivity interaction (KinomeScan (DiscoverX)) EUB0001619a GSG2; details: at 1 µM
T2 sequence (whole entry): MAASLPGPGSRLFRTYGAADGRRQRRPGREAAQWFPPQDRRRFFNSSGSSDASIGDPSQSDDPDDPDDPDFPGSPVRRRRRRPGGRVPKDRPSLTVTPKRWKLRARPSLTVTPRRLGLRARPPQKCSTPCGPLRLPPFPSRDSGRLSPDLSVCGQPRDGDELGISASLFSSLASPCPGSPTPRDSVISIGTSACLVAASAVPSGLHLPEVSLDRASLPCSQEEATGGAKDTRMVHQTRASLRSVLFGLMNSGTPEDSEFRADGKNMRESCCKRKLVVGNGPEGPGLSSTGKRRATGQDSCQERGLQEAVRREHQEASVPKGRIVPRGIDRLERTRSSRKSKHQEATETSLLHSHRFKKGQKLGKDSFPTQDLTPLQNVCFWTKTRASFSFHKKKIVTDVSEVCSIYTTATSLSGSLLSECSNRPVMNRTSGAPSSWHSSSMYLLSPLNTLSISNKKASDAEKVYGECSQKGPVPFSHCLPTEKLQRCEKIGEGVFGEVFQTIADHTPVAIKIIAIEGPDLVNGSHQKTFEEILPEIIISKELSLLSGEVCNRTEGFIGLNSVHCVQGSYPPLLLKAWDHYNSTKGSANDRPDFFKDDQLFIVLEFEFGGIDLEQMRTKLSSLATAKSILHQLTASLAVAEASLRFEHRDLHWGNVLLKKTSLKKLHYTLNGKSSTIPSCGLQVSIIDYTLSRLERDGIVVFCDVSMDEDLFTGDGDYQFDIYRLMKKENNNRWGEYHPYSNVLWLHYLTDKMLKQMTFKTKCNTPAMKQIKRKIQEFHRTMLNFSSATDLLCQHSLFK

[5] = biological target: Fibroblast growth factor receptor 3 (Homo sapiens, UniProt P22607); test: (§1) Selectivity interaction (SelectScreen profiling (Invitrogen)) EUB0000607a FGFR3; details: at 2 µM
Chain of Fibroblast growth factor receptor 3 (P22607 23-806 limits assumed): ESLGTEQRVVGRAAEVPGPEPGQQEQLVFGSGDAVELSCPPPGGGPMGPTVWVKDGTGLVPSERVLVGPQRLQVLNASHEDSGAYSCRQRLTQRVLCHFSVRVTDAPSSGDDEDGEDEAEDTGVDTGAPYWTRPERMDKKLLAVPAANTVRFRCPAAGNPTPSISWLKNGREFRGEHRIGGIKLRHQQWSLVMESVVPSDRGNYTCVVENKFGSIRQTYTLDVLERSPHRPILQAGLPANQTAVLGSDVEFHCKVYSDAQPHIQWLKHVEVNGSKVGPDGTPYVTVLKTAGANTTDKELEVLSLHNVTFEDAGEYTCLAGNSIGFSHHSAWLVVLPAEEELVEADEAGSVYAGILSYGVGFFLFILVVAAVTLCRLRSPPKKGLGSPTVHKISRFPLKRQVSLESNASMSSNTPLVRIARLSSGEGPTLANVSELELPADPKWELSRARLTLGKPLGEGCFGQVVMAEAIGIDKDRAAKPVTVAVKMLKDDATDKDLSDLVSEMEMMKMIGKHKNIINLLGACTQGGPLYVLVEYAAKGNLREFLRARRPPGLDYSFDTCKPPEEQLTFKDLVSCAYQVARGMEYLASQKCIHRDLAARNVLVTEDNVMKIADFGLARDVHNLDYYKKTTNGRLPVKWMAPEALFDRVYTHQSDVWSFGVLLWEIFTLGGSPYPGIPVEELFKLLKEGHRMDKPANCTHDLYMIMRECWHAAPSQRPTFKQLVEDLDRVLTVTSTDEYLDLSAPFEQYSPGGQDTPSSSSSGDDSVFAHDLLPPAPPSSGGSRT

[6] = test system: Fibroblast growth factor receptor 3 (Homo sapiens), P22607 [K650E]; test: as §1; details: at 2 µM
Chain of Fibroblast growth factor receptor 3 (Homo sapiens), P22607 [K650E] (P22607 whole entry K650E): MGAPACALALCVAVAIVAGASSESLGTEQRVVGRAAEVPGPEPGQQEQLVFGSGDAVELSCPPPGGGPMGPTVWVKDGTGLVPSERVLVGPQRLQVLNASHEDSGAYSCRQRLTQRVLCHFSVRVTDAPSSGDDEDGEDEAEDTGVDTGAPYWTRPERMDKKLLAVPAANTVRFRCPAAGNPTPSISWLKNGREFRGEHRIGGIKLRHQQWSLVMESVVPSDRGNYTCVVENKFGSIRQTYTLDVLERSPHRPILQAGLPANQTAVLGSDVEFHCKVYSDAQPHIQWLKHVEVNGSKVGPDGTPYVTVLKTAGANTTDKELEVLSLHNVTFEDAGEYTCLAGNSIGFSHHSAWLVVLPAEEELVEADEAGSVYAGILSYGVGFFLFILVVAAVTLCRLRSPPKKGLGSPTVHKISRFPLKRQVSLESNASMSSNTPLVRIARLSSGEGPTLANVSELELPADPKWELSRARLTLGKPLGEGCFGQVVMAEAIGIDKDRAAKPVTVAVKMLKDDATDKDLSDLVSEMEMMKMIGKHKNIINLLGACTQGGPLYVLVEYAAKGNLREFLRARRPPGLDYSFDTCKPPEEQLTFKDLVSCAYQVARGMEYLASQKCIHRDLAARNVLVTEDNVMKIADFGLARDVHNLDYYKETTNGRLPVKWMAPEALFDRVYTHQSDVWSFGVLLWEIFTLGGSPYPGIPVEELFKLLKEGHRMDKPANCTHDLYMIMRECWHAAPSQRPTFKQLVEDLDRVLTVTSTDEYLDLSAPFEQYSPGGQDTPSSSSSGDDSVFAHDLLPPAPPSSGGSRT

[7] = biological target: Mitogen-activated protein kinase kinase kinase kinase 1 (Homo sapiens) (UniProt Q92918); test: Selectivity interaction (KinomeScan (DiscoverX)) EUB0000607a MAP4K1; details: at 10 µM
Chain of Mitogen-activated protein kinase kinase kinase kinase 1 (Homo sapiens) (Q92918 whole entry, looked up): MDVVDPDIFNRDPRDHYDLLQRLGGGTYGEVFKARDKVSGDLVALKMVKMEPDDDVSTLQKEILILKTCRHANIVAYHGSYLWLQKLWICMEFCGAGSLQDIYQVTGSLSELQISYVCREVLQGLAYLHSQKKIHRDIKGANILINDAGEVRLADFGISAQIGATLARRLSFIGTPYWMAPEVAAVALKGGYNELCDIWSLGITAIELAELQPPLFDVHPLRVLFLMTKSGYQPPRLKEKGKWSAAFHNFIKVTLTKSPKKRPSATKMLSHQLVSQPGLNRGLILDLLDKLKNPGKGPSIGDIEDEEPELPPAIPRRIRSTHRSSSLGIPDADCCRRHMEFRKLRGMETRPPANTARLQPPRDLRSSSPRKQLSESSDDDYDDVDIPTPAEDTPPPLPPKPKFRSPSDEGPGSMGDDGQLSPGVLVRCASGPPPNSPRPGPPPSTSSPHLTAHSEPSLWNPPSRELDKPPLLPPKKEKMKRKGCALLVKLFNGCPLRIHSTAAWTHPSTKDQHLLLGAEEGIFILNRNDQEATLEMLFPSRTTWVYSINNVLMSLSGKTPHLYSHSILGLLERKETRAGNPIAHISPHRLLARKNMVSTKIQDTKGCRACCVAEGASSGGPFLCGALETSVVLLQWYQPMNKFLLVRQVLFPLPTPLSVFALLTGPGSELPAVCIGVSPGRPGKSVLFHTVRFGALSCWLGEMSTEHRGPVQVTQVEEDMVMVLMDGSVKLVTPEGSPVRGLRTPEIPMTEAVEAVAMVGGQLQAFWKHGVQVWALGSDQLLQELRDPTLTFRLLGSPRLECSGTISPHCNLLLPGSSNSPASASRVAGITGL

[8] = biological target: Mitogen-activated protein kinase kinase kinase kinase 4 (Homo sapiens, UniProt O95819); test: Selectivity interaction (SelectScreen Kinase Profiling (Thermo Fisher Scientific)) EUB0001558a MAP4K4; details: at 1 µM
[9] = biological target: T3, Serine/threonine-protein kinase RIO1 (Homo sapiens) (UniProt Q9BRS2); details: at 10 µM
T3 sequence (whole entry): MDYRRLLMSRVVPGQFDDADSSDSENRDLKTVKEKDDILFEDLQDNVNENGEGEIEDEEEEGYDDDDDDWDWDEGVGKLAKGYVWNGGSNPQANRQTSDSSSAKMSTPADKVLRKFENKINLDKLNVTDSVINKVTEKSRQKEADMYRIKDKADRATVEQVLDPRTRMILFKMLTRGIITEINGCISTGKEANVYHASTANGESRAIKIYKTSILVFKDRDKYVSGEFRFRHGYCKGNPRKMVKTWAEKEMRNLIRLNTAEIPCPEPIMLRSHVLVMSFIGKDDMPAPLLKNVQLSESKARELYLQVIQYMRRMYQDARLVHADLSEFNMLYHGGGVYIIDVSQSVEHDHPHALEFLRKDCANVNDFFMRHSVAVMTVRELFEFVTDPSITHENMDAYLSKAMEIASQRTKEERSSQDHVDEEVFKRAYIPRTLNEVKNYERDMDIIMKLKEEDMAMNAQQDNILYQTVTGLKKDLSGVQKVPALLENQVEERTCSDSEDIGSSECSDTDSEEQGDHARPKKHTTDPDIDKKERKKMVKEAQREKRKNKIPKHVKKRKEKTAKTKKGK

Chain of Myosin light chain kinase, smooth muscle (Q15746 whole entry, canonical isoform): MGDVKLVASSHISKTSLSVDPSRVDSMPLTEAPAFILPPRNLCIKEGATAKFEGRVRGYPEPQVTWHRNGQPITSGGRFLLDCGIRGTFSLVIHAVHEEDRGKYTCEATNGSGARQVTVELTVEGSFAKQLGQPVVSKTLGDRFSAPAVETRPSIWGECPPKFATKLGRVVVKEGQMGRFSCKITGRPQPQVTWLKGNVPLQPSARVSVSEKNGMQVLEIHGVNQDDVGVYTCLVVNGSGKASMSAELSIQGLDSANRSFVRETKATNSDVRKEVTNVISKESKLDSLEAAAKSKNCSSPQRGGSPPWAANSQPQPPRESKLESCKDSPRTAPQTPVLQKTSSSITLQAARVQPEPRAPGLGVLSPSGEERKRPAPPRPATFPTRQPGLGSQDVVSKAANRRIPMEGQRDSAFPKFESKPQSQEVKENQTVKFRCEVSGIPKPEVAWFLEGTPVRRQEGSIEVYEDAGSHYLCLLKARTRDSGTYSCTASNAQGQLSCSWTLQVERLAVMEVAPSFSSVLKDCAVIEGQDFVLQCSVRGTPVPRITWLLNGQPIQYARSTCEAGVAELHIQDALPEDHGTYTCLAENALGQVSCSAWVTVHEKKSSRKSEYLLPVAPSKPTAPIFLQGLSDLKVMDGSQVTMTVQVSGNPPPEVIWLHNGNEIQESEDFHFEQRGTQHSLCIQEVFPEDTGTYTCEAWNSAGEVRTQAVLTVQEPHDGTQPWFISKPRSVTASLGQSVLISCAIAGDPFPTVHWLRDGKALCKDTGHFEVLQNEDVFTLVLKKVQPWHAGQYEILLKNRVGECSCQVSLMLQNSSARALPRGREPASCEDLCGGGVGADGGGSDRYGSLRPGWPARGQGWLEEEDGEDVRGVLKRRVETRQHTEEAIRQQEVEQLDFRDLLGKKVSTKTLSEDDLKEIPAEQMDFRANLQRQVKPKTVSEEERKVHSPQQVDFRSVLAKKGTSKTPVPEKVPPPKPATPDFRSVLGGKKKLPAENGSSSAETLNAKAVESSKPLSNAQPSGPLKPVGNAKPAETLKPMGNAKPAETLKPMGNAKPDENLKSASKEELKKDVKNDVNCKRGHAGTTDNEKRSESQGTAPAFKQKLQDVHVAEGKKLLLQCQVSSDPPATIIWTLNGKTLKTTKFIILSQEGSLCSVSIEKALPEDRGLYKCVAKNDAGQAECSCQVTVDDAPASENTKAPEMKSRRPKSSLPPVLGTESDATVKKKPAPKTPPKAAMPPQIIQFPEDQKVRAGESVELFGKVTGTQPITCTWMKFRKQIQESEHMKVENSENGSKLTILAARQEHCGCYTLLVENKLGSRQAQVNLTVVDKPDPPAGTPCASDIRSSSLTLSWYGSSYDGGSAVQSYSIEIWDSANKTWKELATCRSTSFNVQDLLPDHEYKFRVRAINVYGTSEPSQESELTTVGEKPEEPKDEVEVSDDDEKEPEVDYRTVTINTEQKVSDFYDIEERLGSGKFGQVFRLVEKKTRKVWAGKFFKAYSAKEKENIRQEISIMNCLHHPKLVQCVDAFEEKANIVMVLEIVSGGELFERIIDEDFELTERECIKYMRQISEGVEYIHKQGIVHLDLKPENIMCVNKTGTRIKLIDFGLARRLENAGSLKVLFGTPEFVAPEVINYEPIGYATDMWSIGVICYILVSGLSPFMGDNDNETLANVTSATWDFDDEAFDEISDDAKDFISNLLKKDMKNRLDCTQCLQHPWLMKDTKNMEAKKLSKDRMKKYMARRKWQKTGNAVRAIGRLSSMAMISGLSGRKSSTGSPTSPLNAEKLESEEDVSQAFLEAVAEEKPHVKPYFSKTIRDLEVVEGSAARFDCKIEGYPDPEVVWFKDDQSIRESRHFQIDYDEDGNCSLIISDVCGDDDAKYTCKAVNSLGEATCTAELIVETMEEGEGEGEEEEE

Cn1cc(-n2cnc3c(NCc4nc5cc(Cl)c(Cl)cc5[nH]4)nc(N4CCOCC4)nc32)cn1
% of control [1]: 3.94%

C=CC(=O)Nc1cccc(C(=O)Nc2ccc(Nc3cc(-c4[nH]c(SC)nc4C)ccn3)cc2)c1
% of control ([2]; at 1 µM): 84%
% of control ([2]; at 5 µM): 60%

N#Cc1cccc(-c2c[nH]c3ncnc(N4CCOCC4)c23)c1
% of control [3]: 100%
% of control [4]: 46%

CNC(=O)Nc1ccc(-c2nc(N3CC4CCC(C3)O4)c3cnn(C4CCC5(CC4)OCCO5)c3n2)cc1
% of inhibition [5]: 5%
% of inhibition [6]: 6%
% of control [7]: 94%

CC(C)(O)[C@H](F)CN1Cc2cc(NC(=O)c3cnn4cccnc34)c(N3CCOCC3)cc2C1=O
% of inhibition [8]: 86.3%

CCN(CC)CCCCNc1ncc2cc(-c3cc(OC)cc(OC)c3)c(NC(=O)NC(C)(C)C)nc2n1
% of control [9]: 100%
